The text below walks through data of ChEMBL document CHEMBL2429858, “Five new degraded diterpenoids from Trigonostemon xyphophylloides” (Bioorg Med Chem Lett, 2013).

Assay [1] concerns SGC-7901. Nature of the assay: Cytotoxicity against human SGC7901 cells after 48 hrs by MTT assay. Format: functional, cell-based. The note with it: SGC-7901, 48 h. Background: Formazan colour is commonly taken as a measure of viable cells.
Assay [2] can be described thus: Cytotoxicity against human SPCA1 cells after 48 hrs by MTT assay. Format: functional, cell-based. The note with it: SPCA1, 48 h.

A word on the IC50: it is the concentration that inhibits the measured activity by half. Read a high IC50 as a need for much substance. In the case of `CO[C@@]12[C@H](COC(N)=O)C3=C(C(=O)C(C)=C(N)C3=O)N1C[C@@H]1N[C@@H]12` [MITOMYCIN], the results for the IC50 in assay [1] and in assay [2] were 2.05 µM and 1.68 µM, respectively.
The like results for `COc1c(O)c(C)cc2c1C1=CC(=O)C(C)(C)C1=CC2=O` [TRIGOXYPHIN N] were, in that order, 5 µM and 4.08 µM.
